# Reference: patent US20090093469A1, “Phenylaminopropanol Derivatives and Methods of Their Use” (WYETH, priority 2004, published 2009)
# Counter-ions that a name gives are not always drawn.
# Molecular target: T1, hNET (Homo sapiens, UniProt P23975)
# T1 construct: expressed in transfected cells
# Assay: Norepinephrine (NE) uptake assay in MDCK-Net6 cells stably transfected with human hNET
# Type: cell-based
# Settings: MDCK-Net6, read-out: % Inhibition @ 1 μM (hNET)
# T1 sequence (P23975 whole entry): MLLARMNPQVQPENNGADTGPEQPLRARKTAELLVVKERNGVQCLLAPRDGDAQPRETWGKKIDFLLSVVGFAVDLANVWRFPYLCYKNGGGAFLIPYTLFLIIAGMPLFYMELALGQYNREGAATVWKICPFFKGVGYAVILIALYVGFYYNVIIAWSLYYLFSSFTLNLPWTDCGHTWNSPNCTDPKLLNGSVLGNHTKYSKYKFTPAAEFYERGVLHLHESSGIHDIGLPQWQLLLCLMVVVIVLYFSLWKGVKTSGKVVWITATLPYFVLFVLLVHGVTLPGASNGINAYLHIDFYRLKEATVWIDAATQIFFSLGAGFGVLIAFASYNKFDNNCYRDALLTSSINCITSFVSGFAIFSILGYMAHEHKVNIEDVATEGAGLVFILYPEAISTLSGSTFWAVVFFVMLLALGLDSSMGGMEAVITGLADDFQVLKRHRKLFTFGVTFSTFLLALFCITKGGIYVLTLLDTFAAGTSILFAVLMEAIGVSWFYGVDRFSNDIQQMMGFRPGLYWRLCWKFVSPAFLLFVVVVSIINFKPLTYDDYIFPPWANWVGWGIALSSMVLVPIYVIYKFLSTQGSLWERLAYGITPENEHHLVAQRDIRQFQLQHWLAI
row,SMILES,inhibition at 1 µM [%]
1,"CCn1c(=O)n([C@@H](c2ccccc2)[C@H](O)CNC)c2ccccc21 [Example 200, 1-Ethyl-3-[(1S,2R)-2-hydroxy-3-(methylamino)-1-phenylpropyl]-1,3-dihydro-2H-benzimidazol-2-one hydrochloride]",97.9
2,"CNC[C@@H](O)[C@H](c1ccccc1)n1c(=O)n(C(C)C)c2cccc(F)c21 [Example 201, 4-Fluoro-3-(2-hydroxy-3-methylamino-1-phenyl-propyl)-1-isopropyl-1,3-dihydro-benzimidazol-2-one hydrochloride]",98.8
3,"CNC[C@@H](O)[C@H](c1ccccc1)n1c(=O)n(C2CCCC2)c2ccccc21 [Example 202, 1-Cyclopentyl-3-[(1S,2R)-2-hydroxy-3-(methylamino)-1-phenylpropyl]-1,3-dihydro-2H-benzimidazol-2-one hydrochloride]",92.7
4,"CNC[C@@H](O)[C@H](c1ccccc1)n1c(=O)n(C(C)C)c2ccccc21 [Example 203, 1-[(1S,2R)-2-hydroxy-3-(methylamino)-1-phenylpropyl]-3-isopropyl-1,3-dihydro-2H-benzimidazol-2-one hydrochloride]",98.9
5,"CCNC[C@@H](O)[C@H](c1ccccc1)n1c(=O)n(C(C)C)c2ccc(F)cc21 [Example 204, 3-[(1S,2R)-3-(ethylamino)-2-hydroxy-1-phenylpropyl]-5-fluoro-1-isopropyl-1,3-dihydro-2H-benzimidazol-2-one hydrochloride]",47.4
6,"CNC[C@@H](O)[C@H](c1ccccc1)n1c(=O)n(C)c2ccccc21 [Example 205, 1-[(1S,2R)-2-hydroxy-3-(methylamino)-1-phenylpropyl]-3-methyl-1,3-dihydro-2H-benzimidazol-2-one hydrochloride]",82.9
7,"CCn1c(=O)n([C@@H](c2ccccc2)[C@H](O)CNC)c2cc(F)ccc21 [Example 206, 1-Ethyl-5-fluoro-3-[(1S,2R)-2-hydroxy-3-(methylamino)-1-phenylpropyl]-1,3-dihydro-2H-benzimidazol-2-one hydrochloride]",96.9
8,"CCn1c(=O)n([C@@H](c2ccccc2)[C@H](O)CNC)c2c(F)cccc21 [Example 207, 1-Ethyl-4-fluoro-3-[(1S,2R)-2-hydroxy-3-(methylamino)-1-phenylpropyl]-1,3-dihydro-2H-benzimidazol-2-one hydrochloride]",98.3
9,"CNC[C@@H](O)[C@H](c1cccc(F)c1)n1c(=O)n(C(C)C)c2cccc(F)c21 [Example 208, 4-fluoro-3-[(1S,2R)-1-(3-fluorophenyl)-2-hydroxy-3-(methylamino)-propyl]-1-isopropyl-1,3-dihydro-2H-benzimidazol-2-one hydrochloride]",99.8
10,"CCn1c(=O)n([C@@H](c2cccc(F)c2)[C@H](O)CNC)c2c(F)cccc21 [Example 209, 1-Ethyl-4-fluoro-3-[(1S,2R)-2-hydroxy-3-(methylamino)-1-(3-fluorophenyl)-propyl]-1,3-dihydro-2H-benzimidazol-2-one hydrochloride]",99.3

# Same assay, conditions: test compound 1 μM; [3H]NE uptake, MDCK-Net6 cells; read-out: % Inhibition @ 1 μM (hNET)
row,SMILES,inhibition at 1 µM [%]
1,"CNC[C@@H](O)[C@H](c1cccc(F)c1)N1C(=O)C(C)(C)c2ccccc21 [Example 210, 1-[(1S,2R)-1-(3-fluorophenyl)-2-hydroxy-3-(methylamino)propyl]-3,3-dimethyl-1,3-dihydro-2H-indol-2-one hydrochloride]",96.3
2,"CNC[C@@H](O)[C@H](c1cccc(F)c1)n1cc(-c2cccc(F)c2F)c2ccccc21 [Example 211, (1S,2R)-1-[3-(2,3-difluorophenyl)-1H-indol-1-yl]-1-(3-fluorophenyl)-3-(methylamino)propan-2-ol hydrochloride]",99.8
3,"CNC[C@@H](O)[C@H](c1cccc(F)c1)n1cc(-c2ccccc2Cl)c2ccccc21 [Example 214, (1S,2R)-1-[3-(2-chlorophenyl)-1H-indol-1-yl]-1-(3-fluorophenyl)-3-(methylamino)propan-2-ol hydrochloride]",99.9
